Results taken from patent US12103915B2, “TEAD inhibitors and methods of uses thereof” (Insilico Medicine IP Limited, priority 2022, dated 2024).

Assays:
NCI-H226 cells = assay: Cell growth assay (CellTiter-Glo); type: cell-based, human; details: Homo sapiens, NCI-H226, 168 h, 7 days treatment, CellTiter-Glo luminescence, read-out: H226 CTG IC50
TEAD1 = TEAD1 (Homo sapiens, UniProt P28347); assay: Thermal shift assay TEAD1; type: binding
Outline: (§1)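 Protein melt reactions contained TEAD1 (0.2 mg/ml final) or TEAD2 (0.08 mg/ml final) plus compound at 1 or 10 μM in 0.1% DMSO. Thermal unfolding was followed by dye fluorescence on a qPCR instrument.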

TEAD2 = TEAD2 (Homo sapiens, UniProt Q15562); assay: Thermal shift assay TEAD2; type: binding
Outline: as §1

TEAD3 = TEAD3 (Homo sapiens, UniProt Q99594); assay: Thermal shift assay TEAD3; type: binding
Outline: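 Compounds at 1 or 10 μM (0.1% DMSO, PBS dilution) mixed with 0.1 mg/ml final TEAD3 and thermal shift dye, then run through a qPCR melt to follow protein unfolding.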

TEAD4 = TEAD4 (Homo sapiens, UniProt Q15561); assay: Thermal shift assay TEAD4; type: binding
Outline: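 Compounds tested at 1 and 10 μM (0.1% DMSO, PBS) against TEAD4 protein at 0.1 mg/ml final. Melting followed by thermal shift dye fluorescence during a qPCR instrument ramp.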

[1] = Pharmacokinetic profile evaluation in mice; type: in vivo, CD-1 mice; details: CD-1; mouse, oral administration at 10 mg/kg, plasma
Description: Example C: Pharmacokinetic Profile Evaluation
Three CD-1 mice of SPF. (Sino-British SIPPR/BK Lab Animal Ltd, Shanghai.) were intravenously administrated with given compounds (Formulation: 5% DMSO+10% Solutol+85% Saline) or orally gavage administrated with given compounds (Formulation: 5% DMSO+10% Solutol+85% Saline). The blood samples were taken via cephalic vein at timepoints 0.083 h, 0.25 h, 0.5 h, 1 h, 2 h, 4 h, 8 h, and 24 h after intravenous (iv) administration or at timepoints 0.25 h, 0.5 h, 1 h, 2 h, 4 h, 6 h, 8 h, and 24 h after oral gavage administration, 30 μL/time point. Blood samples were placed in tubes containing K2-EDTA and stored on ice until centrifuged. The blood samples were centrifuged at 6800 g for 6 minutes at 2-8° C. within 1 h after collected and stored frozen at approximately −80° C. An aliquot of 20 μL plasma samples were protein precipitated with 400 μL MeOH in which contains 100 ng/mL Verapamil (IS). The mixture was vortexed for 1 min and centrifuged at 18000 g for 10 min. Transfer 400 μL supernatant to 96 well plates. An aliquot of 5 μL supernatant was injected for LC-MS/MS analysis by LC-MS/MS-27 (TQ6500+) instrument. The analytical results were confirmed using quality control samples for intra-assay variation. The accuracy of >66.7% of the quality control samples should be between 80-120% of the known value(s). Standard set of parameters including Area Under the Curve (AUC(0-t)), maximum plasma concentration (Cmax), elimination half-life (T1/2) will be calculated using noncompartmental analysis modules in FDA certified pharmacokinetic program Phoenix WinNonlin 7.0 (Pharsight, USA).

[2] = tested on: human lung cancer NCI-H226 xenograft; assay: In vivo anti-tumor efficacy, NCI-H226 xenograft model (TGI); design: species or system BALB/c Nude mice; details: QD, oral, tumor volume at day 21
Description: (§2) Example D: In Vivo Pharmacodynamic and Efficacy Study
(§3) The objective of the research is to evaluate the in vivo anti-tumor efficacy of Example 58b, 64, 75a in human lung cancer NCI-H226 xenograft model in BALB/c Nude mice. (Jiangsu GemPharmatech Co., Ltd, female, 6-9 weeks)
(§4) The NCI-H226 cancer cells was maintained in vitro with RPMI1640 medium supplemented with 10% fetal bovine serum at 37° C. in an atmosphere of 5% CO2 in the air. The cells in exponential growth phase will be harvested and quantitated by cell counter before tumor inoculation. Each mouse was inoculated subcutaneously it the right front flank region with NCI-H226 tumor cells (lx 107) in 0.2 ml of PBS mixed with Matrigel (1:1) for tumor development. Animals were randomized when the average tumor volume reached 150-200 mm^3. The test article was administered to the mice orally once a day from the day of grouping, total 21 days (QD×21 Days). Body weight change of animals was monitored regularly as an indicator of drug safety. The major endpoint was to see if the tumor growth could be delayed or mice could be cured. Tumor sizes were measured two times per week in two dimensions using a caliper, and the volume were expressed in mm^3 using the formula: V=0.5a×b^2 where a and b are the long and short diameters of the tumor, respectively.
(§5) The tumor volume were then used for the calculations of TGI. TGI is calculated for each group using the formula: TGI (%)=[1−(Ti−T0)/(Ci−C0)]×100; Ti is the average tumor volume of a treatment group on a given day, T0 is the average tumor volume of the treatment group on the first day of treatment, Ci is the average tumor volume of the vehicle control group on the same day with Ti, and C0 is the average tumor volume of the vehicle group on the first day of treatment. To compare tumor volumes of different groups at a pre-specified day, Bartlett's test was used to check the assumption of homogeneity of variance across all groups.

[3] = Body weight change in NCI-H226 xenograft study; type: in vivo, BALB/c Nude mice; details: QD, oral, day 21 compared to day 1
Description: as §2, §3, §4, §5

TEAD2, sequence (Q15562 whole entry, species assumed): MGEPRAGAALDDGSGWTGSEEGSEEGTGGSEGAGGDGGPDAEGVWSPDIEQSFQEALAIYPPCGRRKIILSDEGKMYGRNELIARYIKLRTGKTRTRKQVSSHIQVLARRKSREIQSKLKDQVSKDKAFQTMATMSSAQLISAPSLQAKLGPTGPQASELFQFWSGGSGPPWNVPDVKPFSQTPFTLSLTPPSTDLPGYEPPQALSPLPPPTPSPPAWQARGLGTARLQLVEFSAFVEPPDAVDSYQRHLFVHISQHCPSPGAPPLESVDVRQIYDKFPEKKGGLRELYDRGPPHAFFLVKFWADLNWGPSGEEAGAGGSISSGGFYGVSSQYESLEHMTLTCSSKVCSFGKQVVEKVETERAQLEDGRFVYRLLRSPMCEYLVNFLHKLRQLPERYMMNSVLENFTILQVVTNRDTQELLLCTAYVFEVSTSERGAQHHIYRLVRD
TEAD3, sequence (Q99594 whole entry, species assumed): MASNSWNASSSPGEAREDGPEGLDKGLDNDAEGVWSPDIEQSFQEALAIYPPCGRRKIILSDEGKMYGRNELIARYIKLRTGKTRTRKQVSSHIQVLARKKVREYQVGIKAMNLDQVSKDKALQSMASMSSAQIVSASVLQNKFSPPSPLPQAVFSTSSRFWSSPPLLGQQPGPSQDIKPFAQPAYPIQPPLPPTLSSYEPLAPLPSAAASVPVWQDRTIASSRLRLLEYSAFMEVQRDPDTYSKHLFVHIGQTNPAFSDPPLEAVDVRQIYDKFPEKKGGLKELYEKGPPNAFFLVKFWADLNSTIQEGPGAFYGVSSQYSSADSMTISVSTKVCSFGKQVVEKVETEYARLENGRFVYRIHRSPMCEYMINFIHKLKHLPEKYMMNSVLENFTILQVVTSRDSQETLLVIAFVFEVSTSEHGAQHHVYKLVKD
TEAD1, sequence (P28347 whole entry, species assumed): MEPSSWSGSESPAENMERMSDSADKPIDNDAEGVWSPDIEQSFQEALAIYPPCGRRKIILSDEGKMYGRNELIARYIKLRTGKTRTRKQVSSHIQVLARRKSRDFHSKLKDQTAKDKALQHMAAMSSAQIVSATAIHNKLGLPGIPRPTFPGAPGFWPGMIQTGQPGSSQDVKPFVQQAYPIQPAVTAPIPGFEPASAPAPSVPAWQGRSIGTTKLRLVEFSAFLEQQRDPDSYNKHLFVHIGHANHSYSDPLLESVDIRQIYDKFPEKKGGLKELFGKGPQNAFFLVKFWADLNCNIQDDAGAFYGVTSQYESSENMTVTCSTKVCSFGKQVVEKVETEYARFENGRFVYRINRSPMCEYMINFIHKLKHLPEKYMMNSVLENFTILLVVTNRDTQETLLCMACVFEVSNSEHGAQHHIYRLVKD
TEAD4, sequence (Q15561 whole entry, species assumed): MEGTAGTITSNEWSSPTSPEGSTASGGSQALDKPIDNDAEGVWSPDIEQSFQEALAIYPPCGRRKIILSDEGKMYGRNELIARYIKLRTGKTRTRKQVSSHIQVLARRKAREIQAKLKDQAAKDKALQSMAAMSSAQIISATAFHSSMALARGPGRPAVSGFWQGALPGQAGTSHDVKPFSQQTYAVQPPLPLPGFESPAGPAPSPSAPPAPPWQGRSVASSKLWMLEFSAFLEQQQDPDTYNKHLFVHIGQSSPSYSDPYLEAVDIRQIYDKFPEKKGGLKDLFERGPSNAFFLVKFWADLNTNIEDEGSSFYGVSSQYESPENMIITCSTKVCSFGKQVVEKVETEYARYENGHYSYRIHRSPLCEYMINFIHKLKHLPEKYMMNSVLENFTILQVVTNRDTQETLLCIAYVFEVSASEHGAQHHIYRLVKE

Row | IC50 (NCI-H226 cells) | TEAD1 ΔTm (TEAD1) | TEAD2 ΔTm (TEAD2) | TEAD3 ΔTm (TEAD3) | TEAD4 ΔTm (TEAD4) | AUC(0-t) [1] | Cmax [1] | half-life [1] | SMILES | TGI ([2]; 1 mg/kg) | TGI ([2]; 3 mg/kg) | TGI ([2]; 10 mg/kg) | TGI ([2]; 30 mg/kg) | Body weight change ([3]; 1 mg/kg) | Body weight change ([3]; 3 mg/kg) | Body weight change ([3]; 10 mg/kg) | Body weight change ([3]; 30 mg/kg) | TGI ([2]; 60 mg/kg) | Body weight change ([3]; 60 mg/kg)
1 | < 100 nM | 9.2 °C | 12.9 °C | 10.9 °C | 11.3 °C | 17200 ng·h/mL | 1710 ng/mL | 3.6 h | Cn1cc2cc(Oc3ccc(C(F)(F)F)cc3)cc([C@H]3C[C@@H]3C(=O)N3CC(O)C3)c2n1 (single isomer, unassigned) [Example 58b] | 95% | 103% | 128% | 145% | +8.2% | +4.0% | +1.6% | +2.9% |  | 
2 | < 100 nM | 9.0 °C | 12.2 °C | 10.0 °C | 11.3 °C | 10700 ng·h/mL | 1650 ng/mL | 2.3 h | Cn1cc2cc(Oc3ccc(C(F)(F)F)cc3)cc([C@@H]3C[C@H]3C(=O)N3CC[C@H](O)[C@@H](O)C3)c2n1 (single isomer, unassigned) [Example 75a] |  | 90% | 119% | 150% |  | +6.7% | +3.0% | +4.0% | 149% | +1.5%
